Assay results published in PubChem BioAssay AID248 (DTP/NCI, 2004).
Where “and” joins values, the source holds several entries; their conditions need not be identical. Equal values may be shown once. Inconclusive results and toxic doses are left out.

System: L1210 leukemia ip in BDF1 mice, survival T/C
Assay: NCI In Vivo Anticancer Drug Screen. Data for tumor model L1210 Leukemia (intraperitoneal) in B6D2F1 (BDF1) mice
Details: endpoint: mean survival time, higher = longer survival
Outline: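 Transplanted-tumor mice were given test agent; controls received vehicle only. Survival readings from the two groups were divided (treated over control).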

[1] = dose: 100.0 mg/kg/injection, schedule: Q01DX001 (ip), vehicle: carboxymethylcellulose (CMC)
[2] = dose: 100.0 mg/kg/injection, schedule: Q01DX001 (ip), vehicle: saline
[3] = dose: 200.0 mg/kg/injection, schedule: Q01DX001 (ip), vehicle: saline
[4] = dose: 400.0 mg/kg/injection, schedule: Q01DX001 (ip), vehicle: carboxymethylcellulose (CMC)
[5] = dose: 400.0 mg/kg/injection, schedule: Q01DX001 (ip), vehicle: saline
[6] = dose: 100.0 mg/kg/injection, schedule: Q04DX003 (ip), vehicle: Klucel (hydroxypropylcellulose) (HPC)
[7] = dose: 200.0 mg/kg/injection, schedule: Q04DX003 (ip), vehicle: Klucel (hydroxypropylcellulose) (HPC)
[8] = dose: 400.0 mg/kg/injection, schedule: Q04DX003 (ip), vehicle: Klucel (hydroxypropylcellulose) (HPC)
[9] = dose: 100.0 mg/kg/injection, schedule: Q01DX001 (ip), vehicle: saline with Tween-80
[10] = dose: 200.0 mg/kg/injection, schedule: Q01DX001 (ip), vehicle: saline with Tween-80
[11] = dose: 50.0 mg/kg/injection, schedule: Q01DX001 (ip), vehicle: saline
[12] = dose: 100.0 mg/kg/injection, schedule: Q04DX003 (ip), vehicle: saline
[13] = dose: 200.0 mg/kg/injection, schedule: Q04DX003 (ip), vehicle: saline
[14] = dose: 400.0 mg/kg/injection, schedule: Q04DX003 (ip), vehicle: saline

Question: How did the T/C (dose: 22.0 mg/kg/injection, schedule: Q01DX015 (ip), vehicle: carboxymethylcellulose (CMC)) turn out when CSc1nc(=O)[nH]nc1SCc1ccccc1 was run?
Answer: 95 % of control

Question: And the T/C (dose: 33.0 mg/kg/injection, schedule: Q01DX015 (ip), vehicle: carboxymethylcellulose (CMC))?
Answer: 95 % of control

Question: And the T/C (dose: 44.0 mg/kg/injection, schedule: Q01DX001 (ip), vehicle: carboxymethylcellulose (CMC))?
Answer: 100 % of control and 103 % of control

Question: What about the T/C (dose: 50.0 mg/kg/injection, schedule: Q01DX015 (ip), vehicle: carboxymethylcellulose (CMC)) of the same compound?
Answer: 92 % of control

Question: What about the T/C (dose: 66.0 mg/kg/injection, schedule: Q01DX001 (ip), vehicle: carboxymethylcellulose (CMC)) of the same compound?
Answer: 98 % of control and 102 % of control

Question: What about the T/C (dose: 75.0 mg/kg/injection, schedule: Q01DX009 (ip), vehicle: saline) of the same compound?
Answer: 103 % of control

Question: And the T/C (dose: 75.0 mg/kg/injection, schedule: Q01DX015 (ip), vehicle: carboxymethylcellulose (CMC))?
Answer: 87 % of control

Question: And the T/C [1]?
Answer: 95 % of control and 97 % of control and 284 % of control

Question: What about the T/C [2] of the same compound?
Answer: 100 % of control

Question: What about the T/C (dose: 150.0 mg/kg/injection, schedule: Q01DX001 (ip), vehicle: carboxymethylcellulose (CMC)) of the same compound?
Answer: 96 % of control and 89 % of control

Question: What about the T/C (dose: 150.0 mg/kg/injection, schedule: Q01DX009 (ip), vehicle: saline) of the same compound?
Answer: 95 % of control

Question: And the T/C [3]?
Answer: 97 % of control

Question: And the T/C (dose: 300.0 mg/kg/injection, schedule: Q01DX009 (ip), vehicle: saline)?
Answer: 97 % of control

Question: And the T/C [4]?
Answer: 160 % of control

Question: What about the T/C [5] of the same compound?
Answer: 95 % of control

Question: For CS/C(N)=N\C(=S)Nc1ccccc1, which T/C (dose: 100.0 mg/kg/injection, schedule: Q04DX003 (ip), vehicle: saline with Tween-80) is on record?
Answer: 95 % of control

Question: And the T/C (dose: 200.0 mg/kg/injection, schedule: Q04DX003 (ip), vehicle: saline with Tween-80)?
Answer: 97 % of control

Question: And the T/C (dose: 400.0 mg/kg/injection, schedule: Q04DX003 (ip), vehicle: saline with Tween-80)?
Answer: 101 % of control

Question: For C=C(C)CC(O)CCCCC (centres undefined), which T/C (dose: 100.0 mg/kg/injection, schedule: Q04DX002 (ip), vehicle: saline) is on record?
Answer: 98 % of control

Question: And the T/C (dose: 200.0 mg/kg/injection, schedule: Q04DX002 (ip), vehicle: saline)?
Answer: 102 % of control

Question: And the T/C (dose: 400.0 mg/kg/injection, schedule: Q04DX002 (ip), vehicle: saline)?
Answer: 98 % of control

Question: Which T/C (dose: 1.7 mg/kg/injection, schedule: Q01DX Z (ip), vehicle: saline) does the source give for O=P(N1CCCCCC1)(N1CC1)N1CC1 here?
Answer: 107 % of control

Question: And the T/C (dose: 2.6 mg/kg/injection, schedule: Q01DX Z (ip), vehicle: saline)?
Answer: 114 % of control

Question: What about the T/C (dose: 4.0 mg/kg/injection, schedule: Q01DX Z (ip), vehicle: saline) of the same compound?
Answer: 120 % of control

Question: And the T/C (dose: 9.0 mg/kg/injection, schedule: Q01DX Z (ip), vehicle: saline)?
Answer: 152 % of control

Question: O=C(Nc1ccc([N+](=O)[O-])cc1)Nc1ccc([N+](=O)[O-])cc1 (tested in a mixture with another compound) was tested. Which T/C [6] did it give?
Answer: 89 % of control

Question: And the T/C (dose: 200.0 mg/kg/injection, schedule: Q01DX009 (ip), vehicle: saline)?
Answer: 98 % of control

Question: And the T/C [7]?
Answer: 100 % of control

Question: And the T/C (dose: 400.0 mg/kg/injection, schedule: Q01DX009 (ip), vehicle: saline)?
Answer: 88 % of control

Question: And the T/C [8]?
Answer: 89 % of control

Question: For COc1cc2c[n+](C)c3c4ccccc4ccc3c2cc1OC, which T/C [9] is on record?
Answer: 88 % of control

Question: And the T/C [10]?
Answer: 88 % of control

Question: What does the source list for O=C(OC(CC[P+](c1ccccc1)(c1ccccc1)c1ccccc1)(C(=O)c1ccccc1)c1ccccc1)c1ccccc1 (centres undefined)?
Answer: T/C (dose: 3.0 mg/kg/injection, schedule: Q04DX003 (ip), vehicle: saline): 98 % of control; T/C (dose: 6.0 mg/kg/injection, schedule: Q04DX003 (ip), vehicle: saline): 103 % of control; T/C (dose: 12.0 mg/kg/injection, schedule: Q04DX003 (ip), vehicle: saline): 94 % of control; T/C (dose: 15.0 mg/kg/injection, schedule: Q01DX001 (ip), vehicle: carboxymethylcellulose (CMC)): 90 % of control; T/C (dose: 30.0 mg/kg/injection, schedule: Q01DX001 (ip), vehicle: carboxymethylcellulose (CMC)): 98 % of control; T/C (dose: 60.0 mg/kg/injection, schedule: Q01DX001 (ip), vehicle: carboxymethylcellulose (CMC)): 95 % of control; T/C (dose: 75.0 mg/kg/injection, schedule: Q01DX001 (ip), vehicle: carboxymethylcellulose (CMC)): 88 % of control

Question: Which T/C (dose: 50.0 mg/kg/injection, schedule: Q01DX001 (ip), vehicle: carboxymethylcellulose (CMC)) does the source give for CC(C)[N+]1=C(/C=C/c2ccc3cccnc3c2O)C(C)(C)c2ccccc21 here?
Answer: 97 % of control

Question: And the T/C [1]?
Answer: 103 % of control

Question: What about the T/C (dose: 200.0 mg/kg/injection, schedule: Q01DX001 (ip), vehicle: carboxymethylcellulose (CMC)) of the same compound?
Answer: 95 % of control

Question: And the T/C [4]?
Answer: 95 % of control

Question: How did the T/C (dose: 100.0 mg/kg/injection, schedule: Q04DX002 (ip), vehicle: Klucel (hydroxypropylcellulose) (HPC)) turn out when O=C1CC(C(Cl)(Cl)Cl)O1 (centres undefined) was run?
Answer: 89 % of control

Question: What about the T/C (dose: 200.0 mg/kg/injection, schedule: Q04DX002 (ip), vehicle: Klucel (hydroxypropylcellulose) (HPC)) of the same compound?
Answer: 92 % of control

Question: And the T/C (dose: 400.0 mg/kg/injection, schedule: Q04DX002 (ip), vehicle: Klucel (hydroxypropylcellulose) (HPC))?
Answer: 106 % of control

Question: Cc1ccc(C)c2c3c(oc12)CCCC3 was tested. Which T/C [2] did it give?
Answer: 91 % of control

Question: What about the T/C [3] of the same compound?
Answer: 94 % of control

Question: And the T/C [5]?
Answer: 105 % of control

Question: What does the source list for O=C(O)c1ccccc1C(=O)OC1CC2CCC1CC2 (centres undefined)?
Answer: T/C [9]: 98 % of control; T/C [10]: 104 % of control; T/C (dose: 400.0 mg/kg/injection, schedule: Q01DX001 (ip), vehicle: saline with Tween-80): 100 % of control

Question: Which results are given for O=C(NCCc1c[nH]c2ccccc12)C(=O)NCCc1c[nH]c2ccccc12?
Answer: T/C [6]: 108 % of control; T/C [7]: 93 % of control; T/C [8]: 93 % of control

Question: O=C(CC(c1ccccc1)N1CCCCC1)c1ccccc1 (centres undefined) was tested. Which T/C [11] did it give?
Answer: 97 % of control

Question: And the T/C [2]?
Answer: 100 % of control

Question: And the T/C [3]?
Answer: 94 % of control

Question: And the T/C [5]?
Answer: 97 % of control

Question: For Cc1cccc(NC(=O)c2cccc(F)c2)c1C, which T/C (dose: 100.0 mg/kg/injection, schedule: Q01DX009 (ip), vehicle: Klucel (hydroxypropylcellulose) (HPC)) is on record?
Answer: 105 % of control

Question: What about the T/C (dose: 200.0 mg/kg/injection, schedule: Q01DX009 (ip), vehicle: Klucel (hydroxypropylcellulose) (HPC)) of the same compound?
Answer: 100 % of control

Question: What about the T/C (dose: 400.0 mg/kg/injection, schedule: Q01DX009 (ip), vehicle: Klucel (hydroxypropylcellulose) (HPC)) of the same compound?
Answer: 94 % of control

Question: Which results are given for Cc1cc(Br)ccc1N?
Answer: T/C (dose: 100.0 mg/kg/injection, schedule: Q01DX009 (ip), vehicle: saline with Tween-80): 99 % of control; T/C (dose: 200.0 mg/kg/injection, schedule: Q01DX009 (ip), vehicle: saline with Tween-80): 95 % of control; T/C (dose: 400.0 mg/kg/injection, schedule: Q01DX009 (ip), vehicle: saline with Tween-80): 99 % of control

Question: For Nc1ccc(Oc2ccc(S(=O)(=O)O)cc2)cc1, which T/C [12] is on record?
Answer: 93 % of control

Question: What about the T/C [13] of the same compound?
Answer: 94 % of control

Question: And the T/C [14]?
Answer: 94 % of control

Question: For Cc1ccccc1N=Cc1cccc([N+](=O)[O-])c1, which T/C (dose: 100.0 mg/kg/injection, schedule: Q01DX001 (ip), vehicle: Klucel (hydroxypropylcellulose) (HPC)) is on record?
Answer: 107 % of control

Question: And the T/C [6]?
Answer: 98 % of control

Question: What about the T/C (dose: 200.0 mg/kg/injection, schedule: Q01DX001 (ip), vehicle: Klucel (hydroxypropylcellulose) (HPC)) of the same compound?
Answer: 107 % of control

Question: And the T/C [7]?
Answer: 101 % of control

Question: What about the T/C (dose: 400.0 mg/kg/injection, schedule: Q01DX001 (ip), vehicle: Klucel (hydroxypropylcellulose) (HPC)) of the same compound?
Answer: 112 % of control

Question: And the T/C [8]?
Answer: 98 % of control

Question: Which T/C (dose: 100.0 mg/kg/injection, schedule: Q01DX009 (ip), vehicle: other) does the source give for COc1cc(OC)c(Cl)c(OC)c1 here?
Answer: 120 % of control

Question: What about the T/C [12] of the same compound?
Answer: 101 % of control

Question: And the T/C (dose: 200.0 mg/kg/injection, schedule: Q01DX009 (ip), vehicle: other)?
Answer: 103 % of control

Question: What about the T/C [13] of the same compound?
Answer: 100 % of control

Question: And the T/C (dose: 400.0 mg/kg/injection, schedule: Q01DX009 (ip), vehicle: other)?
Answer: 108 % of control

Question: And the T/C [14]?
Answer: 101 % of control

Question: What does the source list for CC[n+]1c(C)ccc2ccccc21?
Answer: T/C (dose: 25.0 mg/kg/injection, schedule: Q01DX009 (ip), vehicle: Klucel (hydroxypropylcellulose) (HPC)): 91 % of control; T/C (dose: 25.0 mg/kg/injection, schedule: Q04DX003 (ip), vehicle: Klucel (hydroxypropylcellulose) (HPC)): 99 % of control; T/C [11]: 95 % of control; T/C (dose: 50.0 mg/kg/injection, schedule: Q01DX009 (ip), vehicle: Klucel (hydroxypropylcellulose) (HPC)): 91 % of control; T/C (dose: 50.0 mg/kg/injection, schedule: Q04DX003 (ip), vehicle: Klucel (hydroxypropylcellulose) (HPC)): 99 % of control

Question: What does the source list for Cn1cc2c(=O)n(OS(=O)(=O)c3ccccc3)c(=O)[nH]c2n1?
Answer: T/C [11]: 106 % of control; T/C [2]: 93 % of control; T/C [3]: 106 % of control; T/C [5]: 100 % of control
